Columns and labels:
K-Ras G12V = molecular target: T1, K-Ras G12V (Homo sapiens, UniProt P01116, G12V); experiment: PPI-HTRF assay, K-Ras G12V / SOS1 interaction; assay type: biochemical; conditions: HTRF, K-Ras G12V; read-out: PPI-HTRF-5 nM (K-Ras G12V IC50)
T1 construct: made in house; host or cells: E. coli, e.g. BL21 (DE3)
Source text: (§1) This assay can be also used to assess a selective inhibition or reduction of signaling output of a mutant Ras protein relative to a wildtype, or relative to a different mutant Ras protein. For example, the equilibrium interaction of wildtype Kras or K-Ras mutant (e.g., wildtype or a mutant thereof) with SOS1 (e.g., hSOS1) can be assessed as a proxy or an indication for a subject compound's ability to bind and inhibit Ras protein. HTRF assay detects from (i) a fluorescence resonance energy transfer (FRET) donor (e.g., antiGST-Europium) that is bound to GST-tagged K-Ras mutant to (ii) a FRET acceptor (e.g., anti-6His-XL665) bound to a His-tagged hSOS1.
(§2) The assay buffer can contain ˜5 mM HEPES pH 7.4, ˜150 mM NaCl, ˜1 mM DTT, 0.05% BSA and 0.0025% (v/v) Igepal. A Ras working solution is prepared in an assay buffer containing typically a suitable amount of the protein construct (e.g., GST-tagged K-Ras mutant) and the FRET donor (e.g., antiGST-Eu(K) from Cisbio, France). A SOS1 working solution is prepared in an assay buffer containing suitable amount of the protein construct (e.g., His-hSOS1) and the FRET acceptor (e.g., anti-6His-XL665 from Cisbio, France). A suitable amount of the protein construct will depend on the range of activity or range of IC50 values being detected or under investigation. For detecting IC50 within a range of 500 nM, the protein constructs of the same range of molarity can be utilized.
(§3) A fixed volume of DMSO with or without test compound is transferred into a 384-well plate. Ras working solution is added to all wells of the test plate. SOS1 working solution is added to all wells except for those that are subsequently filled the inhibitor control solution. Upon incubation for about 10 minutes or longer, the fluorescence is measured with a M1000Pro plate reader (Tecan) using HTRF detection (excitation 337 nm, emission 1: 620 nm, emission 2: 665 nm). Compounds are tested in duplicate at different concentrations (for example, 10 μM, 2.5 μM, 0.63 μM, 0.16 μM, 0.04 μM, 0.01 μM test compound). The ratiometric data (i.e., emission 2 divided by emission 1) is used to calculate IC50 values against Ras using GraphPad Prism (GraphPad software). Following this general procedure, samples are tested with or without a subject compound disclosed herein including compounds exemplified in Table 1 to assess their abilities to inhibit a mutant K-Ras relative to another K-Ras (e.g., different mutant or wildtype). Signaling output measured in terms of IC50 values can be obtained, a ratio of IC50 against one mutant relative to another mutant can be calculated. For instance, a selective reduction of K-Ras G12D signaling output can be evidenced by a ratio greater than one. In particular, a selective reduction of K-Ras G12D signaling relative to K-Ras WT signaling is evidenced if the ratio of IC50 (against K-Ras WT) to IC50 (against K-Ras G12D) is greater than 1.

SW620 cells = experiment: Ras cellular assay, cell proliferation SW620; assay type: cell-based; conditions: Homo sapiens, SW-620
Source text: (§4) For example, this assay can be also used to assess selective growth inhibition of a mutant Ras protein relative to a wildtype, or relative to a different mutant Ras protein.

K-Ras G12D = molecular target: T2, K-Ras G12D (Homo sapiens, UniProt P01116, G12D); experiment: PPI-HTRF assay, K-Ras G12D / SOS1 interaction; assay type: biochemical; conditions: HTRF, K-Ras G12D; read-out: PPI-HTRF-5 nM (K-Ras G12D IC50)
T2 construct: made in house; host or cells: E. coli, e.g. BL21 (DE3)
T2 sequence (P01116 1-188 isoform P01116-2 G12D): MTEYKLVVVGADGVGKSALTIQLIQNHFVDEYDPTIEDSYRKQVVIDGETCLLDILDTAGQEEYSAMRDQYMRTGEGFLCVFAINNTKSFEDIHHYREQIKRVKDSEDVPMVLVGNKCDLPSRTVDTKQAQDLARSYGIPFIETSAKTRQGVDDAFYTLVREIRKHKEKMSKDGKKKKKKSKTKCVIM
Source text: as §1, §2, §3

wildtype K-Ras = molecular target: T3, wildtype K-Ras (Homo sapiens, UniProt P01116); experiment: PPI-HTRF assay, wildtype K-Ras / SOS1 interaction; assay type: biochemical; conditions: HTRF, K-Ras wt; read-out: PPI-HTRF-5 nM (K-Ras wt IC50)
T3 construct: made in house; host or cells: E. coli, e.g. BL21 (DE3)
T3 sequence (P01116 1-188 isoform P01116-2): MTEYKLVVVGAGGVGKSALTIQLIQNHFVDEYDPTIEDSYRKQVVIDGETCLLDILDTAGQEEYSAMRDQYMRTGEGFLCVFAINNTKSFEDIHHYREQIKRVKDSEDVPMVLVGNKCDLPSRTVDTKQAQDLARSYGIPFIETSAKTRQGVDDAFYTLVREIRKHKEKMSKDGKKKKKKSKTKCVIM
Source text: as §1, §2, §3

GP2D cells = experiment: Ras cellular assay, cell proliferation GP2D; assay type: cell-based
Experimental: as §4
ASPC-1 (ATCC CRL-1682), Panc-10.05 (ATCC CRL-2547), A427, GP2d cell lines or any other cell lines comprising a G12D mutation can be used to assess Ras cellular signaling in vitro, e.g., in response to a compound described herein. For example, ASPC-1 culture medium is prepared with RPMI-1640 and 10% heat-inactivated FBS. Panc-10.05 culture medium is prepared with RPMI-1640, 10 Units/mL human recombinant insulin, and 10% FBS. A427 cell culture is prepared with RPMI-1640 and 10% heat-inactivated FBS. A CellTiter-Glo (CTG) luminescent based assay (Promega) is used to assess growth of the cells, as a measurement of the ability of the compounds herein to inhibit Ras signaling in the cells. The cells (e.g., 800 per well) are seeded in their respective culture medium in standard tissue culture-treated 384-well format plates (Falcon #08-772-116) or ultra-low attachment surface 384-well format plates (S-Bio #MS-9384UZ). The day after plating, cells are treated with a dilution series (e.g., a 9 point 3-fold dilution series) of the compounds herein (e.g., approximately 40 μL final volume per well). Cell viability can be monitored (e.g., approximately 5 days later) according to the manufacturer's recommended instructions, where the CellTiter-Glo reagent is added (e.g., approximately 10 μL), vigorously mixed, covered, and placed on a plate shaker (e.g., approximately for 20 min) to ensure sufficient cell lysis prior to assessment of luminescent signal. The IC50 values are determined using the four parameter fit. The resulting IC50 value is a measurement of the ability of the test compound to reduce cell growth of Ras-driven cells (e.g., tumor cell lines) in vitro and/or in vivo.

K-Ras G12S = molecular target: T4, K-Ras G12S (Homo sapiens, UniProt P01116, G12S); experiment: PPI-HTRF assay, K-Ras G12S / SOS1 interaction; assay type: biochemical; conditions: read-out: PPI-HTRF-5 nM (K-Ras G12S IC50)
T4 construct: made in house; host or cells: E. coli, e.g. BL21 (DE3)
T4 sequence (P01116 1-188 isoform P01116-2 G12S): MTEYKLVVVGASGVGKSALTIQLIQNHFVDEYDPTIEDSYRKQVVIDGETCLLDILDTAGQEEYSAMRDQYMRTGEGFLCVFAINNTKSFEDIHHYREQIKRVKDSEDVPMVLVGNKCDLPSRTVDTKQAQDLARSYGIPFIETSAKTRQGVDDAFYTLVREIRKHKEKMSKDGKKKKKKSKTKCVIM
Source text: as §1, §2, §3

T1 sequence (P01116 1-188 isoform P01116-2 G12V): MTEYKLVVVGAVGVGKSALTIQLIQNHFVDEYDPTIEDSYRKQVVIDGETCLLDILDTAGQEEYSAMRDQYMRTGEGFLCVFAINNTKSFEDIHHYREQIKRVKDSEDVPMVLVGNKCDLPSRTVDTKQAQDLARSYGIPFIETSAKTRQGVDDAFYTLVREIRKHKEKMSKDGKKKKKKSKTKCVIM

| SMILES | IC50 (K-Ras G12V) | IC50 (SW620 cells) | IC50 (K-Ras G12D) | IC50 (wildtype K-Ras) | IC50 (GP2D cells) | IC50 (K-Ras G12S) |
| --- | --- | --- | --- | --- | --- | --- |
| N#Cc1c(N)sc2c(F)ccc(-c3c(Cl)c4c5c(nc(OC[C@@]67CCCN6C[C@H](F)C7)nc5c3F)N3C[C@H](NC(=O)[C@H]5CN5)C[C@H]3CO4)c12 [compound 111, (2R)-N-((2R,12aS)-9-(2-amino-3-cyano-7-fluorobenzo[b]thiophen-4-yl)-10-chloro-8-fluoro-6-(((2R,7aS)-2-fluorotetrahydro-1H-pyrrolizin-7a(5H)-yl)methoxy)-2,3,12,12a-tetrahydro-1H-pyrrolo[2′,1′:,4][1,4]oxazepino[5,6,7-de]quinazolin-2-yl)aziridine-2-carboxamide] | < 5 µM | > 5 µM | < 5 µM | < 5 µM | > 5 µM | < 5 µM |
| N#Cc1c(N)sc2c(F)ccc(-c3c(Cl)c4c5c(nc(OCC67CCCN6C[C@H](F)C7)nc5c3F)N3CCCCC3CCO4)c12 (single isomer, unassigned) [compound 184] | – | – | < 5 µM | – | < 5 µM | – |
| N#Cc1c(N)sc2c(F)ccc(-c3c(Cl)c4c5c(nc(OC[C@@]67CCCN6C[C@H](F)C7)nc5c3F)N3CCC(C#N)CC3CO4)c12 (single isomer, unassigned) [compound 211] | – | – | < 5 µM | – | < 5 µM | – |
| N#CCC1CCN2c3nc(OC[C@@]45CCCN4C[C@H](F)C5)nc4c(F)c(-c5ccc(F)c6sc(N)c(C#N)c56)c(Cl)c(c34)OCC2C1 (single isomer, unassigned) [compound 162] | – | – | – | – | < 5 µM | – |
| N#Cc1c(N)sc2c(F)ccc(-c3c(Cl)c4c5c(nc(OC[C@@]67CCCN6C[C@H](F)C7)nc5c3F)N3CC5(CCN5C(=O)n5cncn5)CC3CO4)c12 (stereo partly drawn) [compound 190, 2-amino-4-(6′-chloro-4′-fluoro-2′-(((2R,7aS)-2-fluorotetrahydro-1H-pyrrolizin-7a(5H)-yl)methoxy)-1-(1H-1,2,4-triazole-1-carbonyl)-8a′,9′-dihydro-8′H,11′H-spiro[azetidine-2,10′-pyrrolo[2′,1′:3,4][1,4]oxazepino[5,6,7-de]quinazolin]-5′-yl)-7-fluorobenzo[b]thiophene-3-carbonitrile] | – | – | < 5 µM | – | < 5 µM | – |
| N#Cc1c(N)sc2c(F)ccc(-c3c(Cl)c4c5c(nc(OC[C@@]67CCCN6C[C@H](F)C7)nc5c3F)N3CCC[C@@H]3CC(C(F)F)O4)c12 (single isomer, unassigned) [compound 212] | – | < 5 µM | < 5 µM | – | < 5 µM | – |
| CN1c2nc(OC[C@@]34CCCN3C[C@H](F)C4)nc3c(F)c(-c4ccc(F)c5sc(N)c(C#N)c45)c(Cl)c(c23)OC2COCC21 (stereo partly drawn) [compound 166, 2-amino-4-(6-chloro-4-fluoro-2-(((2R,7aS)-2-fluorotetrahydro-1H-pyrrolizin-7a(5H)-yl)methoxy)-11-methyl-7a,8,10a,11-tetrahydro-10H-furo[3′,4′:2,3][1,4]oxazepino[5,6,7-de]quinazolin-5-yl)-7-fluorobenzo[b]thiophene-3-carbonitrile] | < 5 µM | – | < 5 µM | < 5 µM | – | < 5 µM |
| CCN[C@@H]1CC[C@H]2COc3c(Cl)c(-c4ccc(F)c5sc(N)c(C#N)c45)c(F)c4nc(OC[C@@]56CCCN5C[C@H](F)C6)nc(c34)N2C1 [compound 119, 2-amino-4-((5aS,8R)-3-chloro-8-(ethylamino)-1-fluoro-12-(((2R,7aS)-2-fluorotetrahydro-1H-pyrrolizin-7a(5H)-yl)methoxy)-5,5a,6,7,8,9-hexahydropyrido[2′,1′:3,4][1,4]oxazepino [5,6,7-de]quinazolin-2-yl)-7-fluorobenzo[b]thiophene-3-carbonitrile] | < 5 µM | – | < 5 µM | < 5 µM | – | < 5 µM |
| N#Cc1c(N)sc2c(F)ccc(-c3c(Cl)c4c5c(nc(OC[C@@]67CCCN6C[C@H](F)C7)nc5c3F)N3C[C@H](N)C[C@H]3CO4)c12 [compound 195, 2-amino-4-((8aS,10R)-10-amino-6-chloro-4-fluoro-2-(((2R,7aS)-2-fluorotetrahydro-1H-pyrrolizin-7a(5H)-yl)methoxy)-8a,9,10,11-tetrahydro-8H-pyrrolo[2′,1′:3,4][1,4]oxazepino[5,6,7-de]quinazolin-5-yl)-7-fluorobenzo[b]thiophene-3-carbonitrile] | < 5 µM | – | < 5 µM | < 5 µM | – | < 5 µM |
| N#Cc1c(N)sc2c(F)ccc(-c3c(Cl)c4c5c(nc(OC[C@@]67CCCN6C[C@H](F)C7)nc5c3F)N3[C@H](CO4)C[C@@H]3COC(F)F)c12 [compound 210, 2-amino-4-((8aS,10R)-6-chloro-10-((difluoromethoxy)methyl)-4-fluoro-2-(((2R,7aS)-2-fluorotetrahydro-1H-pyrrolizin-7a(5H)-yl)methoxy)-8,8a,9,10-tetrahydroazeto[2′,1′:3,4][1,4]oxazepino [5,6,7-de]quinazolin-5-yl)-7-fluorobenzo[b]thiophene-3-carbonitrile] | > 5 µM | – | > 5 µM | > 5 µM | – | > 5 µM |
| CC(O)C1C[C@H]2CCCN2c2nc(OC[C@@]34CCCN3C[C@H](F)C4)nc3c(F)c(-c4ccc(F)c5sc(N)c(C#N)c45)c(Cl)c(c23)O1 (single isomer, unassigned) [compound 135] | – | > 5 µM | – | – | < 5 µM | – |
| N#Cc1c(N)sc2c(F)ccc(-c3c(Cl)c4c5c(nc(OC[C@@]67CCCN6C[C@H](F)C7)nc5c3F)N3CCC[C@@H]3CCO4)c12 [compound 183, 2-amino-4-((13aR)-10-chloro-8-fluoro-6-(((2R,7aS)-2-fluorotetrahydro-1H-pyrrolizin-7a(5H)-yl)methoxy)-1,2,3,12,13,13a-hexahydropyrrolo[1′,2′:5,6][1,5]oxazocino [4,3,2-de]quinazolin-9-yl)-7-fluorobenzo[b]thiophene-3-carbonitrile] | – | – | – | – | < 5 µM | – |
